This passage reports IC50 results from patent US5318964A, “Hydroxamic derivatives and pharmaceutical compositions” (Hoffmann-La Roche Inc., priority 1992, dated 1994).

In this experiment the target is T1, collagenase obtained from a culture of human synovial fibroblasts (Homo sapiens, UniProt P03956).
T1 construct: endogenous in cells; host or cells: human synovial fibroblasts in culture (conditioned medium)
T1 sequence (P03956 100-469): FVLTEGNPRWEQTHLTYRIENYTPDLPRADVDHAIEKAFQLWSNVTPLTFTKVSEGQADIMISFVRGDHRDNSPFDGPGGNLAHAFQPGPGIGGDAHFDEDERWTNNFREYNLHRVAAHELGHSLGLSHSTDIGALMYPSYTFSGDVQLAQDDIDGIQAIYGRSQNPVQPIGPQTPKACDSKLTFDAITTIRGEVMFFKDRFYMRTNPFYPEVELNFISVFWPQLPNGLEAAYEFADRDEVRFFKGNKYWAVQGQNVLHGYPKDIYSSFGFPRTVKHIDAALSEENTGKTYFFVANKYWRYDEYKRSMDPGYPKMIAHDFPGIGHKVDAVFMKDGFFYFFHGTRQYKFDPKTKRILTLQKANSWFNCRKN
Briefly: in vitro collagenase inhibiting activity (14C-acetylated collagen type I from rat tail tendons as substrate, microtitre plate assay). In kind it is biochemical. Particulars: trypsin-activated collagenase from human synovial fibroblasts; 14C-acetylated collagen type I (rat tail tendons) substrate; concentration reducing substrate cleavage and solubilization to 50% of enzyme alone. The method, then: As mentioned earlier, the compounds of formula I and their pharmaceutically acceptable salts are collagenase inhibitors. […] Collagenase activity was measured using ^14 C-acetylated collagen type I from rat tail tendons as the substrate and employing the microtitre plate assay method of Johnson-Wint, B, Anal. Biochem. (1980), 104, 175. The IC50 is that concentration of a compound or salt of the invention in the enzyme digestion which reduces substrate cleavage and solubilization to 50% of that achieved by the enzyme alone.
The results obtained in the foregoing test with representative compounds and salts of the invention are compiled in Table I hereinafter: […]

By IC50 is commonly meant the concentration at which inhibition is half-maximal. A high value points to a need for much substance. As to `CC(C)C[C@@H](C(=O)N1CCOCC1)C(CN1C(=O)c2ccccc2C1=O)C(=O)NO` (single isomer, unassigned) [Compound A, 4-[2(R)-[1(R or S)-(Hydroxycarbamoyl)-2-phthalimidoethyl]-4-methylvalery]morpholine], the IC50 turned out to be 10 nM. With `CC(C)C[C@@H](C(=O)N1CCSCC1)C(CN1C(=O)c2ccccc2C1=O)C(=O)NO` (single isomer, unassigned) [Compound B, 4-[2(R)-[1(R or S)-(Hydroxycarbamoyl)-2-phthalimidoethyl]-4-methylvaleryl]tetrahydro-1,4-thiazine], the half-inhibitory concentration (IC50) was 6 nM. Compound `CC(C)C[C@@H](C(=O)N1CCC(O)CC1)C(CN1C(=O)c2ccccc2C1=O)C(=O)NO` (single isomer, unassigned) [Compound C, 1-[2(R)-[1(R or S)-(Hydroxycarbamoyl)-2-phthalimidoethyl]-4-methylvaleryl]-4-piperidinol] came in with an IC50 of 5 nM. The value for `CC(C)C[C@@H](C(=O)N1CCCCC1)C(Cn1c(=O)n(C)n(C)c1=O)C(=O)NO` (single isomer, unassigned) [Compound D, 1-[2(R)-[1(R or S)-(Hydroxycarbamoyl)-2-(1,2-dimethyl-3,5-dioxo-1,2,4-triazolidin-4-yl)ethyl]-4-methylvaleryl]piperidine] was 15 nM; that for `CC(C)C[C@@H](C(=O)N1CCSCC1)C(CN1C(=O)CN(C)C1=O)C(=O)NO` (single isomer, unassigned) [Compound E, 4-[2(R)-[1(R or S)-(Hydroxycarbamoyl)-2-(3-methyl-2,5-dioxo-1-imidazolidinyl)ethyl]-4-methylvaleryl]tetrahydro-1,4-thiazine] was 7 nM. The value for `CNC(=O)[C@@H]1CCCNN1C(=O)[C@H](CC(C)C)C(CN1C(=O)c2ccccc2C1=O)C(=O)NO` (single isomer, unassigned) [Compound F, Hexahydro-2-[2(R)-[1(R or S)-(hydroxycarbamoyl)-2-phthalimidoethyl]-4-methylvaleryl]-N-methyl-3(S)-pyridazinecarboxamide] was 1.2 nM; that for `CC(C)C[C@@H](C(=O)N1CCC(O)CC1)C(CN1C(=O)N(C)C(C)(C)C1=O)C(=O)NO` (single isomer, unassigned) [Compound G, 1-[2(R)-[1(R or S)-(Hydroxycarbamoyl)-2-(3,4,4-trimethyl-2,5-dioxo-1-imidazolidinyl)ethyl]-4-methylvaleryl]-4-piperidinol] was 6.9 nM.
